Source: patent publication US9701709B2 (REATA PHARMACEUTICALS, INC., priority 2012, dated 2017)

Legend:
[1] = system: phosphorylation of IκBα in HeLa cells; experiment: TNF-α-induced phosphorylation of IκBα in HeLa (Western); type: cell-based, human; settings: 6 h pretreatment, TNF-α 20 ng/mL 5 min
Procedure: Total and phosphorylated levels of IκBα were evaluated by Western blot. Primary IκBα antibodies were from Santa-Cruz (sc-371), pIκBα antibody was from Cell Signaling (9246), actin antibody was from Millipore (MAB 1501). Peroxidase-conjugated affini-pure Goat anti-Rabbit (IgG) and peroxidase-conjugated affini-pure Goat anti-Mouse IgG secondary antibodies were purchased from Jackson ImmunoResearch. Protein blots were developed using ECL, and exposed to X-ray film.

[2] = system: Nrf2 target genes (NQO1, HMOX1, GCLM, TXNRD1) in HFL1 lung fibroblasts; experiment: Nrf2 target gene mRNA (qPCR) in HFL1; type: cell-based, human; settings: HFL1, 18 h
Procedure: HFL1 cells were cultured in F-12K media supplemented with 10% fetal bovine serum and 1% penicillin-streptomycin. BEAS-2B cells were cultured in DMEM/F-12 media supplemented with 10% fetal bovine serum and 1% penicillin-streptomycin. […] Each well received the same amount of vehicle. Following treatment, media was removed and cells were harvested using RLT buffer (Qiagen). Lysates were homogenized using QIAShredder columns (Qiagen, Catalog #79654) and RNA was isolated using RNeasy Mini kits (Qiagen, Catalog #74104). For reverse transcription, RNA (1 μg) was combined with Oligo(dT)12-18 primer and H2O in a final volume of 23.25 μL. The mixture was heated to 70° C. for 10 min and then placed on ice. A master mix containing 8 μL 5×1st strand buffer, 2 μL 1 mg/ml BSA, 2 μL 20 mM DTT, 4 μL 5 mM dNTP mix, 0.25 μL RNaseOUTTM and 0.5 μL […]® II reverse transcriptase was added to the RNA mixture and incubated at 42° C. for 1 h. The reaction was inactivated by heating to 70° C. for 10 min. The reaction mixture was diluted 1:3 with H2O prior to use in qPCR. […] The relative abundance of each Nrf2 target gene was determined using the comparative CT method (ΔΔCT). […]

[3] = target: CYP2C19 (Homo sapiens, UniProt P33261); experiment: CYP450 inhibition in pooled human liver microsomes, CYP2C19; type: in vitro ADME; settings: highest concentration tested (3 μM)
Sequence of CYP2C19 (P33261 whole entry): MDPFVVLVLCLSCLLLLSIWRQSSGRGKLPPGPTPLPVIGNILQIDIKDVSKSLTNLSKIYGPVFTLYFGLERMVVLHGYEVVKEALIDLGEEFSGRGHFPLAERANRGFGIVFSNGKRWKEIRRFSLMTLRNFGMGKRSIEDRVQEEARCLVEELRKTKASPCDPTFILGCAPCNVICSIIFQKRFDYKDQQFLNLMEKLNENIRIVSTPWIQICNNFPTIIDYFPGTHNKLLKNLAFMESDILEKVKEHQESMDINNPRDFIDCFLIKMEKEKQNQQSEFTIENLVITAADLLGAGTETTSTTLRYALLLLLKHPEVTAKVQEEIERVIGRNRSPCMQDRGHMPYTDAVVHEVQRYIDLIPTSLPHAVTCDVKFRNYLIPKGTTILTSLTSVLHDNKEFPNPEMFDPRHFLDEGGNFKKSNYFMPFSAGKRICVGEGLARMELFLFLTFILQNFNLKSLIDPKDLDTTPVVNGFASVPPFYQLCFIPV
Description: In addition, there was little or no evidence of metabolism-dependent inhibition of any of the enzymes tested.

[4] = system: cigarette smoke-induced COPD; experiment: Cigarette smoke-induced COPD in mice; type: in vivo, mouse
Procedure: (a) KC; (b) IL-6; (c) TNF-α; (d) IFN-γ; (e) RANTES. […] An AIM analog (63355) was tested in the same study for comparison. Asterisks indicate a statistically significant difference form the CS control group.
At the end of the study, lung tissue and BALF were collected for analysis of inflammatory infiltrates and cytokines. […] An AIM analog (63355) was tested in the same study for comparison. 63355 is a compound of the formula: […]
Txnrd, Gst, and […] enzyme activities were measured using commercially available kits from Cayman Chemical (Ann Arbor, Mich.).

[5] = system: STAT3 phosphorylation in HeLa cells; experiment: IL-6-induced STAT3 phosphorylation in HeLa; type: cell-based, human; settings: 1 μM, 6 h pretreatment
[6] = system: C4-2B-Luc and DU145-Luc human prostate cancer tumors; experiment: Pilot in vivo prostate tumor model with ionizing radiation (luciferase imaging); parameters: species or system mouse; settings: 17.5 mg/kg i.p. plus 18 Gy; n=1
Procedure: The colors indicated by the arrows are indicative of intensity with the intensities being represented by red, yellow, green, and blue in order from highest to lowest intensity.
After the successful results of the in vitro assay, a pilot in vivo assay was carried out using LNCaP/C4-2B and DU145 human prostate cancer engineered to express firefly luciferase (hereafter referred to as C4-2B-Luc and DU145-Luc, respectively). Of note, both of these cell lines grow in an androgen-independent fashion. Cells were cultured in RPMI 1640 supplemented with 10% FBS. Cells were harvested using TrypLE Express (Invitrogen) and washed in PBS and counted. Cells were reconstituted in PBS to arrive at a final concentration of 3×10^6 cells per 30 μL (unless otherwise stated) and aliquoted in separate tubes. Growth factor-reduced Matrigel (BD Bioscience) was thawed overnight at +4° C. and transferred into the tubes in 30 μL aliquots. The cell/Matrigel solutions were transferred to the vivarium and mixed right before injection at a 1:1 ratio. Each mouse (n=1 per group for a total of three animals) received a single subcutaneous injection of the tumor cells. Tumors were pre-established for 4 weeks. […] Tumor progression was monitored weekly via live imaging. […] For standardization, minimal exposure time necessary to image control tumor was determined and all animals were imaged under these conditions. […]

[7] = Metabolism in human liver microsomes; type: in vitro ADME; settings: 60-min incubation, NADPH and UGT
[8] = Plasma protein binding (ultracentrifugation), rat
[9] = system: rat GSTA2 ARE (Nrf2) in AREc32 reporter cell line; experiment: GSTA2-ARE luciferase reporter in AREc32; settings: 15.6 nM, 18 h

## CC1(C)CC[C@]2(NC(=O)C(C)(F)F)CC[C@]3(C)[C@H](C(=O)C=C4[C@@]5(C)C=C(C#N)C(=O)C(C)(C)[C@@H]5CC[C@]43C)[C@@H]2C1 [RTA 408, N-((4aS,6aR,6bS,8aR,12aS,14aR,14bS)-11-cyano-2,2,6a,6b,9,9,12a-heptamethyl-10,14-dioxo-1,2,3,4,4a,5,6,6a,6b,7,8,8a,9,10,12a,14,14a,14b-octadecahydropicen-4a-yl)-2,2-difluoropropanamide]
[1]
  TNF-α-induced phosphorylation of IκBα: inhibited TNF-α-induced phosphorylation of IκBα in a dose-dependent manner
[2]
  Lowest concentration at which induction of Nrf2 target genes was evident: 15.6 nM
[3]
  inhibition at 3 µM: < 50%
[4]; 30 mg/kg
  Lung Txnrd enzyme activity: Txnrd enzyme activity was also induced
[4]; 3, 10, or 30 mg/kg
  Lung NQO1 enzyme activity (decreased by cigarette smoke): rescued this loss
[4]; doses as low as 3 mg/kg daily for two weeks
  Pro-inflammatory cytokines incl. KC and TNF-α: significant suppression of pro-inflammatory cytokines
[5]
  IL-6-induced phosphorylation of STAT3: inhibited phosphorylation of STAT3 induced by IL-6
[6]
  Tumor image (luciferase), RTA 408 plus ionizing radiation: no visible tumor on Day 21
[7]
  Parent molecule remaining: < 10%
[8]
  fraction unbound: 0.05
[9]
  Induction of luciferase activity, GSTA2-ARE reporter: ~2 fold
